From patent US7235572B2, “Thiazolyl-indole derivatives, their manufacture and use as pharmaceutical agents” (Hoffman-La Roche Inc., priority 2003, dated 2007)

Columns and labels:
PPARδ = molecular target: T1, PPARδ (Homo sapiens, UniProt Q03181); experiment: PPARδ radioligand binding assay (scintillation proximity, GST-PPARδ-LBD); settings: SPA radioligand binding
T1 construct: PPARδ (aa 139 to 442); made in house; host or cells: E. coli BL21 (pLysS)
T1 sequence (Q03181 139-441 limits assumed): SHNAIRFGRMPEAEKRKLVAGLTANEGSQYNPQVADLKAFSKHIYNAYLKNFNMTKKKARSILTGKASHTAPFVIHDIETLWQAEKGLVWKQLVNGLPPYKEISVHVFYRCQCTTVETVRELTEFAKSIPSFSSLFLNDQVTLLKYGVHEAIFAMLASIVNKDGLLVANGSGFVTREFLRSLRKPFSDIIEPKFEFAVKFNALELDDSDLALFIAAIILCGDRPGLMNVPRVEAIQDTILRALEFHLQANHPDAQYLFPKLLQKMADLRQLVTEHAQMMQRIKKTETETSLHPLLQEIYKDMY
Description: (§1) Background information on the performed assays can be found in: Nichols J S et al. “Development of a scintillation proximity assay for peroxisome proliferator-activated receptor gamma ligand binding domain”, (1998) Anal. Biochem. 257: 112–119.
(§2) Full-length cDNA clones for humans PPARδ and PPARα and mouse PPARγ were obtained by RT-PCR from human adipose and mouse liver cRNA, respectively, cloned into plasmid vectors and verified by DNA sequencing. Bacterial and mammalian expression vectors were constructed to produce glutathione-s-transferase (GST) and Gal4 DNA binding domain proteins fused to the ligand binding domains (LBD) of PPARδ (aa 139 to 442), PPARγ (aa 174 to 476) and PPARα (aa 167 to 469). To accomplish this, the portions of the cloned sequences encoding the LBDs were amplified from the full-length clones by PCR and then subcloned into the plasmid vectors. Final clones were verified by DNA sequence analysis. […]
PPARδ receptor binding was assayed in HNM10 (50 mM Hepes, pH 7.4, 10 mM NaCl, 5 mM MgCl2, 0.15 mg/ml fatty acid-free BSA and 15 mM DTT). […] Radioligand was added and the reaction incubated at RT for 1 h and scintillation proximity counting performed in the presence of test compounds was determined. All binding assays were performed in 96 well plates and the amount of bound ligand was measured on a Packard TopCount using OptiPlates (Packard). […]

PPARγ = molecular target: T2, PPARγ (Mus musculus, UniProt P37238); experiment: PPARγ radioligand binding assay (scintillation proximity, GST-PPARγ-LBD); settings: SPA radioligand binding
T2 construct: PPARγ (aa 174 to 476); made in house; host or cells: E. coli BL21 (pLysS)
T2 sequence (P37238 204-505): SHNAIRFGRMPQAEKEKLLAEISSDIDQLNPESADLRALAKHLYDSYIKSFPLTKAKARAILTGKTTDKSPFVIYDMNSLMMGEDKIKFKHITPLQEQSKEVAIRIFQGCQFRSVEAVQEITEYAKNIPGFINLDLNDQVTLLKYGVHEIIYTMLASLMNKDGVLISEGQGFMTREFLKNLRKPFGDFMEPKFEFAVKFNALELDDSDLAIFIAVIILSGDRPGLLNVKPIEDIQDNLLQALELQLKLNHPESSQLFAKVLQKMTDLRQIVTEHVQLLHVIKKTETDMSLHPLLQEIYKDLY
Description: as §1, §2
(§3) PPARγ receptor binding was assayed in TKE50 (50 mM Tris-HCl, pH 8, 50 mM KCl, 2 mM EDTA, 0.1 mg/ml fatty acid-free BSA and 10 mM DTT). […] All binding assays were performed in 96 well plates and the amount of bound ligand measured on a Packard TopCount using OptiPlates (Packard). Nonspecific binding was determined in the presence of 10^−4 M unlabelled compound. […]

PPARα = molecular target: T3, PPARα (Homo sapiens, UniProt Q07869); experiment: PPARα radioligand binding assay (scintillation proximity, GST-PPARα-LBD); settings: SPA radioligand binding
T3 construct: PPARα (aa 167 to 469); made in house; host or cells: E. coli BL21 (pLysS)
T3 sequence (Q07869 167-468 limits assumed): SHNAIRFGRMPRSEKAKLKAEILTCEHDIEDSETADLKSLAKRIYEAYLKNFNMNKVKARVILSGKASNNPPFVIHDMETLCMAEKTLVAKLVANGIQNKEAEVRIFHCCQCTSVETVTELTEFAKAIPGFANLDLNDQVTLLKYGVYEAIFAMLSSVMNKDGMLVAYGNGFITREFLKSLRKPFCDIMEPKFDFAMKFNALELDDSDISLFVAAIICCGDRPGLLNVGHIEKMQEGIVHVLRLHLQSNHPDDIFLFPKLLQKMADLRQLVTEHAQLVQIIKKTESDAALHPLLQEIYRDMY
Description: as §1, §2
as §3, with “PPARα” for “PPARγ”

SMILES	IC50 (PPARδ) [nM]	IC50 (PPARγ) [nM]	IC50 (PPARα) [nM]	melting point
Cc1nc(-c2ccc(C(F)(F)F)cc2)sc1C(C)Oc1ccc2ccn(CC(=O)O)c2c1 (racemic) [Example 2, [rac]-(6-{1-[4-methyl-2-(4-trifluoromethyl-phenyl)-thiazol-5-yl]-ethoxy}-indol-1-yl)-acetic acid]	24	≥ 10000	2230	–
Cc1nc(-c2ccc(C(F)(F)F)cc2)sc1CCCOc1cccc2c1ccn2CC(=O)O [Example 8, (4-{3-[4-methyl-2-(4-trifluoromethyl-phenyl)-thiazol-5-yl]-propoxy}-indol-1-yl)-acetic acid]	42	≥ 10000	227	–
Cc1nc(-c2ccc(C(F)(F)F)cc2)sc1COc1ccc2c(c1)cc(C)n2CC(=O)O [Example 32, {2-methyl-5-[4-methyl-2-(4-trifluoromethyl-phenyl)-thiazol-5-ylmethoxy]-indol-1-yl}-acetic acid]	–	–	–	187 to 188 °C (dec.)
